Laboratory results reported in US12486401B2, “‘Smart’ hydrogel for the radiosensitization and sustained delivery of therapeutics triggered by irradiation” (The Trustees of the University of Pennsylvania, priority 2019, dated 2025).

Assays:
U251 DR5-Luc cells = test: Cell based high throughput death receptor screen (DR5-Luc reporter bioluminescence); conditions: compound at 100 nM, 24 h; positive control Tunicamycin 100 nM
Protocol: High throughput screening (HTS) was performed by the HTS core at the University of Pennsylvania. U251 DR5-Luc cells were plated at 2.0×10^3 cells/well across ten 384 well plates. Plates were then incubated in a humidified environment at 37° C. and 5% CO2 for twenty-four hours. Compound from the Selleckchem Bioactive Compound Library I was added to each well at 100 nM (approximately 3200 compounds). Tunicamycin (100 nM) and DMSO (0.1% v/v) served a positive and negative plate controls. Brite-Lite (PerkinElmer, Waltham, MA) reagent was added all plates twenty-four hours following the addition of compound, and plates were assayed on Envision Xcite (PerkinElmer) plate reader. The mean (μ) and standard deviation (σ) for each plate was used to transform total flux for each compound (xi) into z-scores using the formula z=(xi−μ/σ). Calculation of Z-prime for this screening assay was based upon the formula set forth by Zhang et al utilizing Tunicamycin and DMSO as a positive and negative controls respectively. Positive hits were identified as compounds that produced z-prime values greater than Tunicamycin. Reporter activity was validated following compound incubation and bioluminescence imaging on the IVIS spectrum (PerkinElmer).

T4213 orthotopic tumor = test: Orthotopic tumor implantation and treatment with Quisinostat; format: in vivo, athymic nude mice
Source text: T4213 cells were stably modified using a lentiviral vector containing GFP and Luciferase (Biosettia, San Diego, CA). Cells were resuspended in serum free media, and then 3.0×10^5 cells were stereotactically injected into the right striatum of five-week female athymic nude mice (Charles River Labs). Tumor bioluminescence was quantified on the IVIS spectrum (PerkinElmer, Hopkinton, MA) following intraperitoneal administration of D-Luciferin (Goldbio, St Louis MO) two days following cell implantation. In a separate experiment, mice underwent serial bioluminescent imaging following orthotopic T4213 implantation. Mice were assigned to different treatment groups such that the total flux (photons/s) was equivalent between groups (6.4×10^6 photons/s). Treatment was initiated immediately following bioluminescent imaging, and consisted of once daily intraperitoneal administration of 2-Hydroxypropyl-β-cyclodextrin (vehicle, Cayman Chemical, Ann Arbor MI) or 10 mg/kg Quisinostat (Cayman Chemical) for a total of eight doses (FIG. 5A). […] Bioluminescent imaging was repeated seventy-two hours after the last treatment was administered. […] Serial bioluminescence was assessed using a one-way repeated measures ANOVA followed by a post-hoc Tukey test. Post-treatment total flux was background corrected, and the percent change in total flux was analyzed using a Mann-Whitney U test. […]

T4213 = test: Compound dilution studies and cell viability (Cell Titer Glo); format: cell-based; conditions: for IC50: T4213, 72 h
Protocol: (§1) Cells were plated at density of 7.5-1.0×10^4 cells/well in 96 well plates using their respective media. Plates were then incubated in a humidified environment at 37° C. and 5% CO2 for twenty-four hours. An eleven-point dilution series of positive hits from our HTS screen was added to each plate. Cells treated with 0.1% DMSO served as a vehicle control. Plates were incubated with compound for seventy-two hours at 37° C. and 5% CO2, followed by addition of Cell Titer Glo® (Promega). Bio-luminescent readings were obtained using a Synergy HT luminometer (BioTek, Winooski, VT). Raw bio-luminescent values were normalized to their vehicle treated controls, and then fit to a modified Hill Equation using OriginPro 8 (OriginLab, Northampton, MA) in order to calculate IC50 values. All dilution series experiments were performed as biological triplicates.

NS039 = test: as above; format: cell-based, human; conditions: for IC50: NS039, 72 h
Protocol: as §1

[1] = system: Patient-derived glioblastoma organoids (GBOs); test: Brain tumor organoids, compound incubation, viability and immunofluorescence; format: cell-based, human; conditions: 1.0 μM
Protocol: Glioblastoma organoids (GBOs) were generated from primary brain tumor as previously described.3 Briefly, primary brain tumor specimens were minced into approximately 1 mm pieces following clinical confirmation of pathologic diagnosis and incubated in GBO medium containing 50% DMEM:F12 (Thermo Fisher Scientific), 50% Neurobasal (Thermo Fisher Scientific), 1× GlutaMax (Thermo Fisher Scientific), 1× NEAAs (Thermo Fisher Scientific), 1× PenStrep (Thermo Fisher Scientific), 1× N2 supplement (Thermo Fisher Scientific), 1× B27 w/o vitamin A supplement (Thermo Fisher Scientific), 1× 2-mercaptoethanol (Thermo Fisher Scientific), and […] human insulin (Sigma) per well and placed on an orbital shaker rotating at 120 rpm within a 37° C., 5% CO2, and 90% humidity sterile incubator. Organoids would generally form 2-4 weeks following initial culturing. Organoids were then incubated in GBO containing media containing either DMSO (0.1%) or 1.0 μM quisinostat with media changes every two days for seven days total. Post-treatment images were taken on brightfield microscope and samples were subsequently fixed in 4% paraformaldehyde×30 minutes for immunofluorescence analysis.
Serial tissue sections (20 μm) were sliced using a cryostat (Leica, CM3050S), and melted onto charged slides (Thermo Fisher Scientific). Slides were dried at room temperature and stored at −20° C. until ready for immunohistology. For immunofluorescence staining, the tissue sections were outlined with a hydrophobic pen (Vector Laboratories) and washed with TBS containing 0.1% Tween-20 (v/v). Non-specific binding was blocked using a solution containing 10% donkey serum (v/v), 0.5% Triton X-100 (v/v), 1% BSA (w/v), 0.1% gelatin (w/v), and 22.52 mg/ml glycine in TBST for 1 hour at room temperature. […]
GBOs were imaged on a Zeiss LSM 710 confocal microscope (Zeiss) using a 20× objective with Zen 2 software (Zeiss). Images were quantified and analyzed using ImageJ software. […]

[2] = Cargo loading efficiency of Se-PCPP hydrogel (UV-Vis / ICP-OES); format: physicochemical; conditions: UV-vis spectroscopy
Protocol: Se-PCPP hydrogel: A mixture of 1 mL PCPP (4 mg·mL^−1, PBS) and 10.3 mg Na2HPO4 were mixed together and pH was adjusted to 7.4 by addition of HCl (1 M). Next, 1.4 μL of selenocystamine dihydrochloride (110 mg·mL^−1, PBS) were added to the mixture and vortexed for 30 seconds. The mixture was dropping into 10 mL of a CaCl2 (8.8%, DI H2O) and left to react under vigorous stirring for 20 minutes at room temperature. Finally, the solution was transferred to conical tubes and centrifuged at 2 k rpm for 8 min. The supernatant was discarded, and the pellet was re-suspended in DI water. After repeating this process three times, the Se-PCPP solution was re-suspended in DI water, vortexed at 14 k rpm and stored at 4° C. The final concentration of […] in the sample was determined using ICP-OES performed on a Spectro Genesis ICP.
Cargo loaded Se-PCPP hydrogel: For the cargo loaded Se-PCPP hydrogel, the PCPP (4 mg/mL, PBS) solution was mixed with the desired amount of cargo (solutions of doxorubicin, FITC-BSA or quisinostat at 1 mg/mL) and 10.3 mg Na2HPO4. The total volume was completed to 2 mL with PBS, pH was adjusted to 7.4 by addition of HCl (1 M) and incubated for 10 minutes before cross-linking with selenocystamine dihydrochloride as described above. The final drug concentration in the sample were determined using UV-Vis spectroscopy by determining the loading efficiency (LE), calculated as follows: % LE=([stock drug]−[non-loaded drug]/[stock drug])*100.

CHOP and DR5 = test: Western blot analysis of CHOP and DR5; format: cell-based
Protocol: Western blot analysis was performed using standard techniques as understood in the art, including those described at least by S. Sheikh et. al., Mol. Cancer Res. 2019, 17 (5), 1102-1114.

T4213 and NS039 cells = test: Sphere formation assay; format: cell-based; conditions: 1.0 μM
Protocol: T4213 and NS039 cells were plated at 2000 cells/well in six well plates in the presence of 0.1% DMSO or 1.0 μM Quisinostat in biological triplicate for twelve days. On day twelve, individual wells were imaged on a Lionheart Fx microscope at 4× magnification following addition of NucBlue™ (Hoechst 33342, Invitrogen). Circular blue objects greater than 50 μm in diameter and less than […] were counted as neurospheres. Differences in sphere formation between cells and treatments were assessed using a one-way ANOVA followed by post-hoc Tukey's test in GraphPad Prism 8. P-values less than 0.05 were considered significant.

[3] = Hydrogel degradation and cargo release after X-ray irradiation; format: physicochemical
Protocol: X-ray irradiation The radiation dose delivered to the sample is quantified in gray (Gy) with the relation of 1 Gy=1 J/kg. The X-ray irradiation was performed on an X-RAD 320ix irradiator (PXi, North Branford, CT) operated at 320 kV, 12.5 mA, focal spot of 8 mm^2 and with an aluminum filter of 2 mm delivering a dosage rate of 2.65 Gy/minute. In brief, the Se-PCPP hydrogel was sampled into 1 mL tube and placed in the irradiator chamber for the desired time depending onto the X-ray dose to be delivered.
Se-PCPP hydrogel ([Au]=0.2 mg/mL) was suspended into 1 mL of freshly prepared PBS/10 FBS in micro-centrifuge tubes and centrifuged at 4 k rpm for 8 minutes. Samples were irradiated with the desired X-ray dose and incubated at 37° C. for the overall experiment time. At the desired time point, samples were vortexed, centrifuged at 4000 rpm for 8 minutes and the supernatant was gently collected for quantification of the released cargo by ICP-OES or UV-vis spectroscopy. 1 mL of freshly prepared incubation medium was rapidly added to each sample, all were incubated at 37° C. until the next time point.

## CCS(=O)(=O)Nc1ccc(Oc2ccc(F)cc2F)c(-c2cn(C)c(=O)c3[nH]ccc23)c1 [ABBV-075]
U251 DR5-Luc cells
  bioluminescent signal in cell-based death receptor assay: greater than our positive control Tunicamycin

## Cn1cc(CNCC2CCN(c3ncc(C(=O)NO)cn3)CC2)c2ccccc21 [Quisinostat]
T4213 orthotopic tumor; 10 mg/kg once daily intraperitoneal with breaks, seventy-two hours after last treatment
  tumor bioluminescence: significant reduction
T4213 orthotopic tumor; systemic administration
  mouse body weight: reduction of mouse body weight
T4213
  IC50: single digit nanomolar
T4213; normal human astrocytes vs T4213
  therapeutic window (ratio of IC50s between NHA and T4213): favorable therapeutic window
U251 DR5-Luc cells
  bioluminescent signal in cell-based death receptor assay: greater than our positive control Tunicamycin
NS039
  IC50: single digit nanomolar
NS039; normal human astrocytes vs NS039
  therapeutic window (ratio of IC50s between NHA and NS039): favorable therapeutic window
[1]; five distinct GBO lines
  Caspase staining: increased
  Ki67 staining: decreased
[1]; seven days
  organoid size: noticeably shrink
[2]
  loading efficiency in Se-PCPP hydrogel: 81%
CHOP and DR5
  CHOP dependent DR5 expression: at nanomolar concentrations
T4213 and NS039 cells; Hoechst staining
  cell morphology, sphere formation and integrity: shrunken and fragmented cell morphology
T4213 and NS039 cells; twelve days, control 120-130 neurospheres per well, p<0.05
  neurosphere formation: 4-27 neurospheres per well

## FITC-BSA
[3]
  delivery profile from Se-PCPP hydrogel: slower than both quisinostat and doxorubicin
[2]
  loading efficiency in Se-PCPP hydrogel: 91%

## COc1cccc2c1C(=O)c1c(O)c3c(c(O)c1C2=O)C[C@@](O)(C(=O)CO)C[C@@H]3O[C@H]1C[C@H](N)[C@H](O)[C@H](C)O1 [doxorubicin]
[2]
  loading efficiency in Se-PCPP hydrogel: 74%

## O=C(/C=C/c1ccc(CN(CCO)CCc2c[nH]c3ccccc23)cc1)NO [Dacinostat]
U251 DR5-Luc cells
  bioluminescent signal in cell-based death receptor assay: greater than our positive control Tunicamycin

## COc1ccc(-c2nc(N3CCOCC3)c3sc(CN(C)c4ncc(C(=O)NO)cn4)cc3n2)cn1 [CUDC-907]
T4213
  IC50: single digit nanomolar
U251 DR5-Luc cells
  bioluminescent signal in cell-based death receptor assay: greater than our positive control Tunicamycin
NS039
  IC50: single digit nanomolar
